Experimental findings from patent publication US20230213525A1, “DETECTING MICROBIAL INFECTION IN WOUNDS” (QUALIZYME DIAGNOSTICS GMBH & CO KG, priority 2016, published 2023) are described below.

Structures are written as SMILES.

What all share (format): biochemical
One assay has as its target T1, MPO (Homo sapiens, UniProt P05164).
T1 sequence (P05164 49-745): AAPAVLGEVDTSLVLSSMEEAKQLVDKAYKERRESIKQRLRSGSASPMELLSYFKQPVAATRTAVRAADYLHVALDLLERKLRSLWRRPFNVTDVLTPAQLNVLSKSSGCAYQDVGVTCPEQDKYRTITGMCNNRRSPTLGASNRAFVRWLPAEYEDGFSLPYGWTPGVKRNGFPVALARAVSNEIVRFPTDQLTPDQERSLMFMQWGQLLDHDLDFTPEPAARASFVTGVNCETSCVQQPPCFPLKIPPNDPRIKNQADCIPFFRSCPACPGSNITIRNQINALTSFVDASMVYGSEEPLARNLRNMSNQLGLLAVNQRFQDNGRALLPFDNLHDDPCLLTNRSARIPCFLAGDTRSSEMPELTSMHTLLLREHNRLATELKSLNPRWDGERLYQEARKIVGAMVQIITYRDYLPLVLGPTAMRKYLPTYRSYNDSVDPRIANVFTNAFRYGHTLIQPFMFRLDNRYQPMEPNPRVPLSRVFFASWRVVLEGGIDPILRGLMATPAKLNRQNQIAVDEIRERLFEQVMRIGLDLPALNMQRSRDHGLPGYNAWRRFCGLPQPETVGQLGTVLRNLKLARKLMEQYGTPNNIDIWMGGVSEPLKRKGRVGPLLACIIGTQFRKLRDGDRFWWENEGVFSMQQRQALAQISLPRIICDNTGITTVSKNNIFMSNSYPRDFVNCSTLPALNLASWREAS
The assay can be described thus: Colorimetric enzyme assay for detection of myeloperoxidase activity. The following applies: 1 mg/mL, pH 6.4, 5 mM H2O2.

The test system of assay [1] is Phospholipase A2. The experiment in a line: Phospholipase A2 based test, liquid system, sputum. As to conditions: room temperature, 30 minutes. The protocol:
For this diagnostic tool, 4-Nitro-3-octanoylbenzoic acid as Phospholipase A2 - substrate was used. 4-Nitro-3-octanoylbenzoic acid (1.7 mM) is dissolved in assay buffer containing 50 mM Tris/HCl buffer pH 7.2, 150 mM KCL and 10 mM CaC12. 190 µl of the buffer are pipetted into a microtiterplate.
(§1) This mixture is incubated at room temperature for 30 minutes.

Assay [2] deals with Phospholipase A2. The experiment in a line: Phospholipase A2 based test, liquid system, wound fluid. The following applies: room temperature, 30 minutes. Here is the method:
Preparation of diagnostic system. For this diagnostic tool, 4-Nitro-3- octanoylbenzoic acid as Phospholipase A2 - substrate was used. 4-Nitro-3-octanoylbenzoic acid (1.7 mM) is dissolved in assay buffer containing 50 mM Tris/HCl buffer pH 7.2, 150 mM KCL and 10 mM CaC12. 190 µl of the buffer are pipetted into a microtiterplate.
as §1

For assay [3], the target named is T2, Myeloperoxidase (Homo sapiens, UniProt P05164).
T2 sequence (P05164 49-745): T1 sequence (P05164 49-745)
The assay can be described thus: Myeloperoxidase based test, cellulose based system, sputum. As to conditions: filter paper discs, H202, 5 minutes. The protocol: 1.5 µl of H202 (50 mM) and 1.5 µl of the substrates (109 mM ABTS, 454 mM TMB, 230 mM Fast Blue, x mM Guaiacol, x mM 4-Amino-3-methoxy benzoic acid) were incubated on small Whatmann Filterpaper discs.

For assay [4], the system named is Catalase. The assay can be described thus: Catalase based test, liquid system, sputum. The following applies: room temperature, 30 minutes. The protocol:
For this diagnostic tool: Purpald as substrate for catalase was used. Purpalt is dissolved in water (50-100 mM?). 200 µl of substrate solution are pipetted into a microtiterplate.
as §1

For assay [5], the system named is Catalase. The assay can be described thus: Catalase based test, liquid system, wound fluid. As to conditions: room temperature, 30 minutes. Here is the method:
For this diagnostic tool: Purpald as substrate for Catalase was used. Purpalt is dissolved in water (50-100 mM). 200 µl of substrate solution are pipetted into a microtiterplate.
as §1

Assay [6] concerns the target T2, Myeloperoxidase. The assay can be described thus: Myeloperoxidase based test, liquid system, sputum. The following applies: succinate buffer pH 5.4, H202, 5 minutes.
A further assay relates to Phospholipase C. The assay can be described thus: Phospholipase C based test, liquid system, wound fluid. As to conditions: room temperature, 30 minutes, visual inspection. Here is the method: For this diagnostic tool, p-Nitrophenylphosphorylcholine as substrate for Phospholipase C was used. p-Mtrophenylphosphorylcholine is dissolved in water (50-100 mM). A 250 mM: Tris/HCi buffer with 70% Sorbitol pH 7.2 was used as assay buffer. 230 µl of the buffer and 100 µl of the substrate are pipetted into a microtiterplate.
as §1

Where [7] appears, read: infected sputum samples A, B, C.
The mark [8] stands for this setting: non infected sputum samples D, E, F.
The mark [9] stands for this setting: infected wound fluid samples A, B, C.
The mark [10] stands for this setting: non infected wound fluid samples D, E, F.

For `Nc1ccc(C(=O)O)cc1N` [3,4-Diamino benzoic acid], the “colour of solution upon MPO oxidation” value at MPO was “turned brownish”.

For the compound `CCCCCCCC(=O)c1cc(C(=O)O)ccc1[N+](=O)[O-]` [4-Nitro-3-octanoylbenzoic acid], the Test response result with Phospholipase A2 [1] (setting [7]) is on record as “yellow”; in the assay on Phospholipase A2 [1] (setting [8]) it was “No colour change”; with Phospholipase A2 [2] (setting [9]) it was “yellow”; in the assay with Phospholipase A2 [2] (setting [10]), “No colour change”.

For `COc1cc(C(=O)O)ccc1N` [Compound 4A3Mba, 4-Amino-3-methoxy benzoic acid], the Test response result at Myeloperoxidase [3] (infected sputum samples A, B) is “brown”; at Myeloperoxidase [3] (non infected sputum samples C, D) it was “No colour change”.

Regarding `NNc1n[nH]c(=S)n1N` [Purpald], the Test response result with Catalase [4] (setting [7]) is given as “yellow”; in the assay with Catalase [4] (non-infected sputum samples D, E, F), “No colour change”; in the assay on Catalase [5] (setting [9]), “yellow”; in the assay on Catalase [5] (setting [10]), “No colour change”.

In the case of `Cc1cc(-c2cc(C)c(N)c(C)c2)cc(C)c1N` [TMB, 3, 3′, 5, 5′ -Tetramethylbenzidine], the figures for the Test response result at Myeloperoxidase [6] (setting [7]) and on Myeloperoxidase [6] (setting [8]) were “blue” and “No colour change”, respectively.

`C[N+](C)(C)CCOP(=O)([O-])Oc1ccc([N+](=O)[O-])cc1` [p-Nitrophenylphosphorylcholine]: the Test response entry in the assay with Phospholipase C (setting [9]) was “yellow”; in the assay with Phospholipase C (non-infected wound fluid samples D, E, F), “No colour change”.
